Results as given in patent US20100099710A1, “SRC FAMILY KINASE INHIBITORS” (priority 2007, published 2010).

How the values were obtained:
[1] = test system: Collagen induced arthritis; assay: Collagen induced arthritis (CIA), rats; format: in vivo; details: 5 mg/kg p.o.
From the text: (§1) Collagen induced arthritis is a commonly used and widely accepted arthritis model. Immunologically, the model is dominated by a Th1 response; it is antigen specific and depends on both the B- and T-cell response. This model is responsive to most therapies effective in rheumatoid arthritis in humans except NSAIDs.
(§2) Starting from 21 days after the induction of CIA, the mice were weighed twice a week and the inflammation of the four paws was graded from 0 to 4: • 0: Normal • 1: Swelling of 1-2 toe joints or swelling of metatarsus/metacarpus without swelling of toe joints. • 2: Swelling of >2 toe joints or swelling of toe joints and metatarsus/metacarpus • 3: Severe swelling of the paw including metatarsus/metacarpus • 4: Very severe swelling of the paw resulting in chapped skin. The animals are euthanised. The sum of the scores from the four paws is reported as the arthritis score for each mouse. The maximum score obtainable is therefore 16.
(§3) The area under curve (AUC) of the arthritis score was calculated for all mice and used as a disease index. The treatment effect (inhibitory effect) of the compounds is calculated as:
(§4) 1−(AUCtreatment group)/(AUCvehicle group)
Lewis inbred rats (Harlan), 6 females per group, approximately 11 weeks old were immunised intradermally (i.d.) at the base of the tail with 200 μl of CII emulsion (1 mg/ml) in incomplete Freunds adjuvant (FIA). The rats were re-immunised 10 days later with 50 μl of CII emulsion (1 mg/ml) in FIA. From day 12 the inflammation of each paw was graded and calculated as described for the mouse model. The test-compound was administrated orally from day 10 or from day 14. The last day of treatment was the day before the end of the experiment.

[2] = test system: Collagen induced arthritis; assay: Collagen induced arthritis (CIA), mice; format: in vivo; details: 3 mg/kg p.o.
Method: as §1
In order to induce arthritis, the mice were immunised intradermally (i.d.) at the base of the tail with 100 μl of CII emulsion (2 mg/ml) in FCA (2 mg/ml of M. tuberculosis). The mice were re-immunised i.d. 21 days later with 100 μl of CII emulsion (1 mg/ml) in FIA. The test compound was administrated once daily from the initiation of treatment to the day before the end of the experiment.
as §2, §3, §4
The medians of the AUC from all groups were compared using the Kruskal-Wallis test. When P<0.05 in the Kruskal-Wallis test, the Mann Whitney test was used to compare the AUCs for individual mice in drug treated groups with the AUC for mice in the control group which were treated with vehicle (significance level P<0.05).

[3] = Table 7, first experiment, printed treated from day 10
[4] = Table 7, first experiment, treated from day 10
[5] = Table 8, second experiment, treated from day 10
[6] = Table 8, second experiment, treated from day 14

C[C@]12C=CC(=O)C=C1CC[C@@H]1[C@@H]2[C@@H](O)C[C@@]2(C)[C@H]1CC[C@]2(O)C(=O)CO [Prednisolone]
AUC of arthritis score, Average [1, 3]: 9 | Percent of vehicle control (group 1) [1, 3]: −74% | AUC of arthritis score, Average [1, 4]: 0.2 | Percent of vehicle control (group 1) [1, 4]: −100% | AUC of arthritis score, Average [1, 5]: 0 | Percent of vehicle control (group 1) [1, 5]: −−100% | AUC of arthritis score, Average [1, 6]: 8 | Percent of vehicle control (group 1) [1, 6]: −78% | AUC of arthritis score, Average ([2]; Table 5): 27 | Percent of vehicle control (group 1) ([2]; Table 5, vehicle day 10): −84% | AUC of arthritis score, Average ([2]; Table 6): 27 | Percent of vehicle control (group 1) ([2]; Table 6, vehicle day 28): −78%
